Experimental data published in ChEMBL document CHEMBL1141596, “A new class of bradykinin B1 receptor antagonists with high oral bioavailability and minimal PXR activity” (Bioorg Med Chem Lett, 2008).
pKi: −log10 of the molar value.

What was measured:
[1] = Ratio of permeability from basolateral to apical over apical to basolateral side in P-gp expressing cells
[2] = Clearance in Mongrel dog at 1 mg/kg, iv; type: ADME, organism-based, Canis lupus familiaris; set-up: dose 1 mg/kg, route intravenous; settings: in vivo
[3] = target: T1, PXR (Nuclear receptor subfamily 1 group I member 2) (Homo sapiens, UniProt O75469); assay: Reduction of PXR activation at 10 uM relative to rifampicin; set-up: scale not given: the % may be the effect or the level left; settings: read-out: Activity
T1 sequence (O75469 whole entry): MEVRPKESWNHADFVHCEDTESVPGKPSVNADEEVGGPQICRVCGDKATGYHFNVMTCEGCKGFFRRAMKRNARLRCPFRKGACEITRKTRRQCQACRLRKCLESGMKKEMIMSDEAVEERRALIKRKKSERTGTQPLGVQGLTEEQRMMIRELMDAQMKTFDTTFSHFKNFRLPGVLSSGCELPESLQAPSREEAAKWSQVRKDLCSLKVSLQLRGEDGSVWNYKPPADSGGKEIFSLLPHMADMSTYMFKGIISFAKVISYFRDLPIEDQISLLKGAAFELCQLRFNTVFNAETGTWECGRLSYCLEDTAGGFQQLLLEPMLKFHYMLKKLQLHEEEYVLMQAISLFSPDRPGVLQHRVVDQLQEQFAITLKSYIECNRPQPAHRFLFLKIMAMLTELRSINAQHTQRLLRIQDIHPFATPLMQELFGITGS

[4] = Half life in Mongrel dog at 1 mg/kg, iv; type: ADME, organism-based, Canis lupus familiaris; set-up: dose 1 mg/kg, route intravenous; settings: in vivo
[5] = Apparent permeability by cell based assay; type: ADME; settings: not told
B1 bradykinin receptor = target: T2, B1 bradykinin receptor (Homo sapiens, UniProt P46663); assay: Binding affinity to human bradykinin B1 receptor expressed in rat CNS
T2 sequence (P46663 whole entry): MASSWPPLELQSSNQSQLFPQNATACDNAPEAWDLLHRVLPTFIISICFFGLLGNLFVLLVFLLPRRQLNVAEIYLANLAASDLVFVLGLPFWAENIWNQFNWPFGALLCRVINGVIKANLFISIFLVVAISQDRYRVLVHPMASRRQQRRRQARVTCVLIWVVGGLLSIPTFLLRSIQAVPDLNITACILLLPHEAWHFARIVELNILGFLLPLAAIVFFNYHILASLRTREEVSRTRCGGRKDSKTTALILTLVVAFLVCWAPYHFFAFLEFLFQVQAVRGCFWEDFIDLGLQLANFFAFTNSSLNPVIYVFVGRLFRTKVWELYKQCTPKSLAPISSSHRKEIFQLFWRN

[6] = Clearance in rhesus monkey at 3 mg/kg, po or 1 mg/kg, iv; type: ADME, organism-based, Macaca mulatta; settings: in vivo
[7] = Clearance in Sprague-Dawley rat at 10 mg/kg, po or 2 mg/kg, iv; type: ADME, organism-based; settings: in vivo
[8] = Ratio of drug level in brain to plasma in african green monkey; type: ADME, organism-based; settings: chlorocebus aethiops
[9] = Oral bioavailability in Sprague-Dawley rat at 10 mg/kg; type: ADME, organism-based; settings: in vivo
[10] = Half life in Sprague-Dawley rat at 10 mg/kg, po or 2 mg/kg, iv; type: ADME, organism-based; settings: in vivo
[11] = target: T3, B1 bradykinin receptor (Homo sapiens) (UniProt P46663); assay: Ex vivo receptor occupancy at bradykinin B1 receptor
T3 sequence (whole entry): T2 sequence (P46663 whole entry)

[12] = Oral bioavailability in rhesus monkey at 3 mg/kg; type: ADME, organism-based, Macaca mulatta; settings: in vivo
[13] = Oral bioavailability in Mongrel dog at 3 mg/kg; type: ADME, organism-based, Canis lupus familiaris; settings: in vivo
[14] = Half life in rhesus monkey at 3 mg/kg, po or 1 mg/kg, iv; type: ADME, organism-based, Macaca mulatta; settings: in vivo

Row | SMILES | Ratio [1] | clearance [2] [mL/min/kg] | activity at 10 µM [3] [%] | half-life [4] [h] | Papp [5] [×10⁻⁶ cm/s] | pKi (B1 bradykinin receptor) | clearance [6] [mL/min/kg] | clearance [7] [mL/min/kg] | Kp [8] | bioavailability [9] [%] | half-life [10] [h] | Occ90 [11] [nM] | bioavailability [12] [%] | bioavailability [13] [%] | half-life [14] [h]
1 | COC(=O)c1c(Cl)cc(Cl)cc1-c1ccc([C@@H](C)NC(=O)C2(NC(=O)C(F)(F)F)CC2)c(F)c1 |  | 20 | 77 | 1.6 |  | 9.40 | 11.2 |  |  |  |  |  |  |  | 
2 | CC(C)Oc1c(Cl)cc(Cl)cc1-c1ccc([C@@H](C)NC(=O)C2(NC(=O)C(F)(F)F)CC2)c(F)c1 |  |  |  |  |  | 8.64 |  |  |  |  |  |  |  |  | 
3 | CCOc1c(Cl)cc(Cl)cc1-c1cnc([C@@H](C)NC(=O)C2(NC(=O)C(F)(F)F)CC2)c(F)c1 |  |  | 89 |  |  | 8.82 |  | 11.3 | 2.2 | 8 | 5 | 1450 |  |  | 
4 | CCOc1c(Cl)cccc1-c1ccc([C@@H](C)NC(=O)C2(NC(=O)C(F)(F)F)CC2)c(F)c1 | 1.9 |  |  |  | 29 | 9.05 |  | 16 |  | 48 | 1.9 |  |  |  | 
5 | COC(=O)c1c(Cl)cc(Cl)cc1-c1ccc([C@@H](C)NC(=O)C2(NC(=O)c3cc(OC)no3)CC2)c(F)c1 | 5.1 |  | 40 |  |  | 9.40 |  |  |  |  |  |  |  |  | 
6 | C[C@@H](NC(=O)C1(NC(=O)C(F)(F)F)CC1)c1ccc(-c2cc(Cl)cc(Cl)c2OCC(F)(F)F)cc1F |  |  | 45 |  | 6.3 | 8.74 |  | 1.1 |  | 35 | 27 |  |  |  | 
7 | CCOc1c(Cl)cc(Cl)cc1-c1cnc([C@@H](C)NC(=O)C2(NC(=O)c3ccno3)CC2)c(F)c1 |  | 7 | 15 | 4.5 |  | 9.22 | 15 | 10 | 1.4 | 7 | 1.9 | 380 | 3 | 55 | 1.2
8 | C[C@@H](NC(=O)C1(NC(=O)C(F)(F)F)CC1)c1ccc(-c2cc(Cl)cc(Cl)c2OC(CF)CF)cc1F |  |  |  |  | 28 | 9.05 |  | 1.6 |  | 56 | 5 |  |  |  | 
9 | C[C@@H](NC(=O)C1(NC(=O)C(F)(F)F)CC1)c1ccc(-c2cc(Cl)cc(Cl)c2OCC(F)F)cc1F |  |  | 95 |  | 26 | 9.70 |  | 5.8 |  |  | 7.6 |  |  |  | 
10 | CCOc1c(Cl)cc(Cl)cc1-c1ccc([C@@H](C)NC(=O)C2(NC(=O)C(F)(F)F)CC2)c(F)c1 |  |  | 62 |  | 18 | 8.89 |  | 11.5 |  | 38 | 7.5 |  |  |  | 

Now from value to molecule:

Row | Ratio [1] | clearance [2] [mL/min/kg] | activity at 10 µM [3] [%] | half-life [4] [h] | Papp [5] [×10⁻⁶ cm/s] | pKi (B1 bradykinin receptor) | clearance [6] [mL/min/kg] | clearance [7] [mL/min/kg] | Kp [8] | bioavailability [9] [%] | half-life [10] [h] | Occ90 [11] [nM] | bioavailability [12] [%] | bioavailability [13] [%] | half-life [14] [h] | SMILES
11 | 2 | 14 | 37 | 4.5 | 25 | 8.72 |  |  |  |  |  |  |  |  |  | CCc1cc(C(=O)NC2(C(=O)N[C@H](C)c3ncc(-c4cc(Cl)cc(Cl)c4OCC(F)F)cc3F)CC2)no1
12 | 3.8 | 13 | 58 | 6.9 | 18 | 8.59 |  |  |  |  |  |  |  |  |  | C[C@@H](NC(=O)C1(NC(=O)c2cc(C3CC3)on2)CC1)c1ncc(-c2cc(Cl)cc(Cl)c2OCC(F)F)cc1F
13 | 1.6 | 2.6 | 68 | 34 | 26 | 9.70 |  |  |  |  |  |  |  |  |  | C[C@@H](NC(=O)C1(NC(=O)c2cc(Cl)no2)CC1)c1ncc(-c2cc(Cl)cc(Cl)c2OCC(F)F)cc1F
14 | 1.8 | 2 | 23 | 18 | 35 | 8.92 |  |  |  |  |  |  |  |  |  | C[C@@H](NC(=O)C1(NC(=O)c2ccon2)CC1)c1ncc(-c2cc(Cl)cc(Cl)c2OCC(F)F)cc1F
15 |  | 2.3 | 99 | 21 | 23 | 8.82 |  |  |  |  |  |  |  |  |  | C[C@@H](NC(=O)C1(NC(=O)C(F)(F)F)CC1)c1ncc(-c2cc(Cl)cc(Cl)c2OCC(F)F)cc1F
16 | 2 | 1.2 | 8 | 21 | 28 | 9.30 | 1.6 | 2.4 | 0.7 | 44 | 4.5 | 540 | 93 | 94 | 6.2 | COc1cc(C(=O)NC2(C(=O)N[C@H](C)c3ncc(-c4cc(Cl)cc(Cl)c4OCC(F)F)cc3F)CC2)on1
17 | 3.9 | 5.9 | 21 | 4 | 29 | 9.40 |  |  |  |  |  |  |  |  |  | C[C@@H](NC(=O)C1(NC(=O)c2ccno2)CC1)c1ncc(-c2cc(Cl)cc(Cl)c2OCC(F)F)cc1F
18 | 1.5 | 4.5 | 28 | 9.4 | 23 | 8.85 | 9.1 | 5.1 | 0.9 | 30 | 3 | 940 | 25 | 21 | 1.6 | Cc1cc(C(=O)NC2(C(=O)N[C@H](C)c3ncc(-c4cc(Cl)cc(Cl)c4OCC(F)F)cc3F)CC2)no1
19 | 2.1 | 3 | 37 | 13.5 | 25 | 8.96 |  |  |  |  |  |  |  |  |  | CCOc1cc(C(=O)NC2(C(=O)N[C@H](C)c3ncc(-c4cc(Cl)cc(Cl)c4OCC(F)F)cc3F)CC2)on1
